{
  "source": "patent US20160324992A1",
  "about": "“IDENTIFICATION AND TREATMENT OF VULNERABLE PLAQUES” (OTTAWA HEART INSTITUTE RESEARCH CORPORATION, priority 2015, published 2016)",
  "key": {"RIP3": {"test_system": "RIP3", "conditions": "BMDMs, pre-treatment with 50 μM DPI", "procedure": "(§1) RNA isolation and quantitative real-time PCR. BMDMs were treated with control media with or without oxLDL or oxLDL+zVAD.fmk for the indicated time points with or without 1 h pre-treatment with 50 μM DPI. Alternatively, BMDMs were polarized to M0, M1 or M2 prior to RNA isolation, as described above. Total RNA was isolated using TRIzol reagent (Invitrogen) as per manufacturer's instructions and cDNA was synthesized using iScript Reverse Transcription kit (BioRad™). Quantitative real-time PCR was performed in triplicate using either the Sso Advanced Universal SYBR Green Supermix (Biorad) or Taqman™ Gene Expression Assay and mRNA level of target genes was normalized to HPRT or β-actin house keeping genes.\nas §1, with “uM” for “μM”, “Total RNA was isolated using TRIzol reagent (Invitrogen) as per manufacturer's instructions and cDNA was synthesized using iScript Reverse Transcription kit (BioRad™).” left out, “Taqman®” for “Taqman™”"}, "MLKL": {"test_system": "MLKL", "conditions": "BMDMs, pre-treatment with 50 μM DPI", "procedure": "as §1\nas §1, with “uM” for “μM”, “Total RNA was isolated using TRIzol reagent (Invitrogen) as per manufacturer's instructions and cDNA was synthesized using iScript Reverse Transcription kit (BioRad™).” left out, “Taqman®” for “Taqman™”"}, "PGAM5": {"test_system": "PGAM5", "conditions": "macrophages, DPI"}, "human MLKL promoter": {"test_system": "human MLKL promoter", "conditions": "RAW macrophages, 50 uM DPI pre-treatment, oxLDL 6 or 24 h", "procedure": "(§2) Promoter Luciferase Assay. Luciferase reporter constructs containing the human MLKL and RIP3 promoters were purchased from SwitchGear Genomics (Carlsbad, CA). RAW264.7 (ATCC) macrophages were plated in 24-well plates in 10% FBS DMEM and transfected using Lipofectamine 2000 (Life Technologies) with MLKL-promoter or RIP3-promoter plasmids (renilla-based luciferase reporter) together with pGL3 basic (firefly-based reporter, Promega) to normalize for transfection efficiency. Twenty-four hours after transfection, cells were treated with or without 100 μg/ml oxLDL as above, for an additional 24 hours. Cells were harvested in lx passive lysis buffer and luciferase measured using the Dual Luciferase Assay (Promega) according to manufacturer's instructions. All experiments were performed in quadruplicate technical replicates at least 3 times.\n(§3) Promoter Luciferase Assay. Luciferase reporter constructs containing the human MLKL and RIP3 promoters were purchased from SwitchGear Genomics (Carlsbad, CA). […] Cells were harvested in 1× passive lysis buffer and luciferase measured using the Dual Luciferase Assay (Promega) according to manufacturer's instructions. […]"}, "human RIP3 promoter": {"test_system": "human RIP3 promoter", "conditions": "RAW macrophages, 50 uM DPI pre-treatment, oxLDL 6 or 24 h", "procedure": "as §2, §3"}, "[1]": {"test_system": "reactive oxygen species (ROS)", "conditions": "BMDMs pre-incubated with 50 μM DPI, oxLDL or oxLDL+zVAD.fmk 3 h", "procedure": "Measurement of Reactive Oxygen Species (ROS). BMDMs were pre-incubated with DPI for 30 minutes followed by the cell permeant reagent 2′, 7′-dichloroflurescin diacetate (DCFDA) fluorescent dye for 1 h. Cells were then treated with oxLDL or oxLDL+zVAD.fmk and fluorescence was measured at 3 h and 24 h as per manufacturers' instructions (Abcam, ab113851)."}},
  "data": [
    {"molecule": "c1ccc2c(c1)[I+]c1ccccc1-2", "note": "[DPI, diphenyleneiodonium]", "values": [
      {"measurement": "induction of RIP3 mRNA expression by oxLDL and oxLDL+zVAD.fmk (in words)", "setting": "RIP3", "result": "inhibited"},
      {"measurement": "induction of MLKL mRNA expression by oxLDL and oxLDL+zVAD.fmk (in words)", "setting": "MLKL", "result": "inhibited"},
      {"measurement": "oxLDL-induced PGAM5 expression (in words)", "setting": "PGAM5", "result": "similarly inhibited"},
      {"measurement": "oxLDL-induced MLKL promoter activity (in words)", "setting": "human MLKL promoter", "result": "significantly blunted"},
      {"measurement": "oxLDL-induced RIP3 promoter activity (in words)", "setting": "human RIP3 promoter", "result": "significantly blunted"},
      {"measurement": "oxLDL-induced production of ROS (in words)", "setting": "[1]", "result": "inhibited"}
    ]}
  ]
}
